These results are taken from ChEMBL document CHEMBL2429847, “Inhibitors of PI3Kβ as Potential Treatment for Cancer” (ACS Med Chem Lett, 2013).

For assay [1], the target named is Phosphatidylinositol 4,5-bisphosphate 3-kinase catalytic subunit beta isoform (Homo sapiens, UniProt P42338). As to the kind of experiment: Inhibition of PI3Kbeta-mediated AKT phosphorylation at Ser473 in PTEN-deficient human MDA-MB-468 cells after 30 mins. Format: cell-based.
The test system of the next assay is MDA-MB-468. As to the kind of experiment: Antiproliferative activity against PTEN-deficient human MDA-MB-468 cells after 6 days by Alamar blue assay. Format: functional, cell-based. Conditions: MDA-MB-468, 144 h. (In general: Alamar Blue is a resazurin reagent that responds to reducing activity.)

Chain of Phosphatidylinositol 4,5-bisphosphate 3-kinase catalytic subunit beta isoform (P42338 whole entry, canonical isoform): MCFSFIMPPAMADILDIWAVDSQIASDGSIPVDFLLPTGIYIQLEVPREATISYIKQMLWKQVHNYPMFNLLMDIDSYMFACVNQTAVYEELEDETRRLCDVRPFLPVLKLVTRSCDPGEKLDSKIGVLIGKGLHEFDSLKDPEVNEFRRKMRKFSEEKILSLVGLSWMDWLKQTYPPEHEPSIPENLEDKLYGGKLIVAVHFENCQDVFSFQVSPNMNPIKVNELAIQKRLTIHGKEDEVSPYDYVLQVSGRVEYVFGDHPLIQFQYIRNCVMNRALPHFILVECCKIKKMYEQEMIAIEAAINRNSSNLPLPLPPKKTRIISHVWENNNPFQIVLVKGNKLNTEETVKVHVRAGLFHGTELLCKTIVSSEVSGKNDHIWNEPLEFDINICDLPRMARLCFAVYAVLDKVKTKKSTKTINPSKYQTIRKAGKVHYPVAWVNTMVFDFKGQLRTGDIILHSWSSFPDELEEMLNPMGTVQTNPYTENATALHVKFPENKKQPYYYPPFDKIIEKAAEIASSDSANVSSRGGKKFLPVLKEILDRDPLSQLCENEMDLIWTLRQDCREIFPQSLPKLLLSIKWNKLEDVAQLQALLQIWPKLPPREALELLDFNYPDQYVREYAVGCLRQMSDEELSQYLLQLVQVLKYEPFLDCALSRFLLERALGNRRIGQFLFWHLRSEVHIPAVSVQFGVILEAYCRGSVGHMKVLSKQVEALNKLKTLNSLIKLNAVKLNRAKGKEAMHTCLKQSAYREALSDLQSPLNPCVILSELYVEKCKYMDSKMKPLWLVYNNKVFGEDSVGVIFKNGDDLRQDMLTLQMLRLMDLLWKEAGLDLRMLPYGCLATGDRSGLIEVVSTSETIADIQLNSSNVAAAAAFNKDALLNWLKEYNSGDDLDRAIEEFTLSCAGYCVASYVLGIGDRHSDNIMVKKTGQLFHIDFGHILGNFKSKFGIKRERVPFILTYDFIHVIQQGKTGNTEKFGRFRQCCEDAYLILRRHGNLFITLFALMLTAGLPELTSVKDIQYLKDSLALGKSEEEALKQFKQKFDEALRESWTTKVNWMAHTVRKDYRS

Consider `Cc1c(Cl)cccc1Cn1c(C)nc2c(C(=O)O)cc(N3CCOCC3)nc21`, for which, in assay [1], the IC50 was 15.9 nM. Also, in the assay with MDA-MB-468, the concentration giving a half-maximal response (EC50) was determined as 18.1 nM.
For `Cc1nc2c(C(=O)O)cc(N3CCOCC3)nc2n1Cc1cccc(Cl)c1Cl` the same measures were 41.4 nM and 153 nM.
Molecule `Cc1c(Cn2c(C)nc3c(C(=O)O)cc(N4CCOCC4)nc32)cccc1C(F)(F)F` came in with an IC50 in assay [1] of 436 nM. The EC50 with MDA-MB-468 stood at 41 nM.

The term IC50 denotes the concentration at which inhibition is half-maximal. Read a high IC50 as weaker potency in that assay. Usually EC50 stands for the concentration needed to bring the measured effect to its halfway point.
